Data: the CheMixHub viscosity set
Where “and” joins values, the source holds several entries; their conditions need not be identical. Identical values can stand only once.

Test: xn = mol fraction of the nth substance listed

CCCOCC(C)O (centres undefined) + CCN(CC)CC
viscosity [mPa·s], 100 kPa
Conditions | 298.15 K | 303.15 K | 308.15 K
x1 = 0.0502 | 0.4177 | 0.3933 | 0.3699
x1 = 0.1001 | 0.4846 | 0.4496 | 0.4206
x1 = 0.1501 | 0.5523 | 0.5096 | 0.476
x1 = 0.2016 | 0.6258 | 0.5726 | 0.5332
x1 = 0.3 | 0.7805 | 0.7042 | 0.6523
x1 = 0.4 | 0.9537 | 0.8515 | 0.7863
x1 = 0.5 | 1.153 | 1.017 | 0.9326
x1 = 0.5998 | 1.382 | 1.207 | 1.102
x1 = 0.6999 | 1.625 | 1.406 | 1.281
x1 = 0.7996 | 1.887 | 1.629 | 1.474
x1 = 0.8998 | 2.169 | 1.87 | 1.682
x1 = 0.9499 | 2.304 | 1.973 | 1.775

CC(=O)c1ccccc1 + Cc1ccccc1
viscosity, 101 kPa
Conditions | x2 = 0.1093 | x2 = 0.2145 | x2 = 0.3206 | x2 = 0.4281 | x2 = 0.5229 | x2 = 0.6213 | x2 = 0.7157 | x2 = 0.8392 | x2 = 0.9074
298.15 K | 1.561 mPa·s and 1.561 mPa·s | 1.446 mPa·s and 1.446 mPa·s | 1.329 mPa·s and 1.329 mPa·s | 1.211 mPa·s and 1.211 mPa·s | 1.105 mPa·s and 1.105 mPa·s | 0.9949 mPa·s and 0.9949 mPa·s | 0.8879 mPa·s and 0.8879 mPa·s | 0.7472 mPa·s and 0.7472 mPa·s | 0.6694 mPa·s and 0.6694 mPa·s
303.15 K | 1.426 mPa·s and 1.426 mPa·s | 1.323 mPa·s and 1.323 mPa·s | 1.218 mPa·s and 1.218 mPa·s | 1.112 mPa·s and 1.112 mPa·s | 1.018 mPa·s and 1.018 mPa·s | 0.9188 mPa·s and 0.9188 mPa·s | 0.8233 mPa·s and 0.8233 mPa·s | 0.6978 mPa·s and 0.6978 mPa·s | 0.6286 mPa·s and 0.6286 mPa·s
308.15 K | 1.31 mPa·s and 1.31 mPa·s | 1.217 mPa·s and 1.217 mPa·s | 1.123 mPa·s and 1.123 mPa·s | 1.027 mPa·s and 1.027 mPa·s | 0.9425 mPa·s and 0.9425 mPa·s | 0.8535 mPa·s and 0.8535 mPa·s | 0.7678 mPa·s and 0.7678 mPa·s | 0.6554 mPa·s and 0.6554 mPa·s | 0.5933 mPa·s and 0.5933 mPa·s

FCC(F)(F)F + OCCOCCOCCO
viscosity [mPa·s], 101.32 kPa
Conditions | x2 = 0.732 | x2 = 0.733 | x2 = 0.79 | x2 = 0.791 | x2 = 0.901 | x2 = 0.903
293.15 K | 11.3 | – | 15.8 | – | 28.9 | –
313.15 K | – | 5.52 | – | 7.14 | – | 11.2

CCCCCCCC/C=C\CCCCCCCC(=O)OCC(COC(=O)CCCCCCC/C=C\CCCCCCCC)OC(=O)CCCCCCC/C=C\CCCCCCCC + c1ccccc1
viscosity [mPa·s], 101.3 kPa
Conditions | x1 = 0.000368 | x1 = 0.000535 | x1 = 0.001078 | x1 = 0.002049 | x1 = 0.004187 | x1 = 0.006457 | x1 = 0.008697 | x1 = 0.01009
298.15 K | 0.613 | 0.6159 | 0.6281 | 0.6494 | 0.7009 | 0.7579 | 0.8092 | 0.8347
303.15 K | 0.572 | 0.5754 | 0.5855 | 0.6052 | 0.6529 | 0.7052 | 0.7525 | 0.7753
308.15 K | 0.5349 | 0.5384 | 0.5476 | 0.5658 | 0.6095 | 0.6577 | 0.7013 | 0.7219

CCCCCCCCC + CCCCCCCCCCCCCCCC
298.15 K, 101.33 kPa
Conditions | viscosity [mPa·s]
x1 = 0.1105 | 2.698
x1 = 0.2002 | 2.416
x1 = 0.3173 | 2.072
x1 = 0.4054 | 1.832
x1 = 0.5056 | 1.571
x1 = 0.5795 | 1.404
x1 = 0.7077 | 1.152
x1 = 0.8024 | 0.9655
x1 = 0.8988 | 0.8177

CC(=O)c1ccccc1 + COC(=O)c1ccccc1
viscosity [mPa·s], 101 kPa
Conditions | x2 = 0.0946 | x2 = 0.1898 | x2 = 0.2861 | x2 = 0.386 | x2 = 0.4823 | x2 = 0.5819 | x2 = 0.6825 | x2 = 0.7877 | x2 = 0.8917
303.15 K | 1.527 | 1.558 | 1.588 | 1.611 | 1.608 | 1.606 | 1.6 | 1.593 | 1.614
313.15 K | 1.285 | 1.307 | 1.329 | 1.348 | 1.341 | 1.334 | 1.322 | 1.315 | 1.329

O=S(=O)([N-]S(=O)(=O)C(F)(F)C(F)(F)F)C(F)(F)F.[Li+] + O
101 kPa, x1 = 0.3
Conditions | viscosity [mPa·s]
293.15 K | 145
298.15 K | 114
303.15 K | 89.8
313.15 K | 58.8
323.15 K | 40.2

CCCCCCCCC + CCCCCC
298.15 K, 101.33 kPa
Conditions | viscosity [mPa·s]
x2 = 0.1073 | 0.6111
x2 = 0.21 | 0.5693
x2 = 0.2873 | 0.5367
x2 = 0.4024 | 0.5017
x2 = 0.5044 | 0.4527
x2 = 0.6074 | 0.42
x2 = 0.7035 | 0.3874
x2 = 0.804 | 0.3547
x2 = 0.9035 | 0.3272
